Test results taken from patent US12723018B2, “Cinnamoyl amino acid compound and use thereof” (CHINA PHARMACEUTICAL UNIVERSITY, priority 2020, dated 2026).

Columns and labels:
[1] = test system: MCAO ischemia-reperfusion rats; assay: Rat ischemia-reperfusion (MCAO) in-vivo model with TTC staining; design: species or system Male SD rats; conditions: 2 mg/kg by gavage daily, FIG. 3
Description: Experimental materials: Male SD rats, weighing 250-300 g, provided by the Model Animal Research Center of Nanjing University and raised in the Experimental Animal Center of China Pharmaceutical University; triphenyl tetrazolium chloride (TTC) and butyphthalide purchased from Sigma; test drug 4-trifluoromethyl-cinnamoyl-4-fluoro-L-phenylalanine prepared in Example 1 (Compound 2 shown), and test drug 4-hydroxy-3-methoxycinnamoyl-L-tyrosine (Compound 1 shown).
Experimental method: The rats were randomly divided into 5 groups, i.e., a blank group, a model group (MCAO group), an MCAO+4-hydroxy-3-methoxycinnamoyl-L-tyrosine (Compound 1 shown, 2 mg/kg) group, an MCAO+4-trifluoromethyl-cinnamoyl-4-fluoro-L-phenylalanine (Compound 2 shown, 2 mg/kg) group and an MCAO+positive drug butyphthalide (5 mg/kg) group. After successful modeling, administration of different doses of compounds by gavage was carried out every day for 15 consecutive days. After the administration, brains were harvested, subjected to TTC staining, and photographed and recorded.
The effect is better than that of the positive drug and 4-hydroxy-3-methoxycinnamoyl-L-tyrosine (Compound 1 shown).

[2] = Physicochemical properties: solubility in solvents
[3] = test system: MPTP-induced Parkinsonian mice; assay: MPTP-induced Parkinsonian mouse rota-rod experiment; type: in vivo, C57BL/6 male mice; conditions: 2 mg/kg by gavage for 12 days before MPTP (20 mg/kg i.p. x4); tested 4 h, 24 h, 48 h, 72 h after modeling; FIG. 2
Description: Experimental materials: 10-week-old C57BL/6 male mice (Nanjing Qinglongshan Farm), rota-rod treadmill (Beijing Zhongshi Technology), levodopa and MPTP (Sigma), test drug 4-trifluoromethyl-cinnamoyl-4-fluoro-L-phenylalanine prepared in Example 1 (Compound 2 shown), and test drug 4-hydroxy-3-methoxycinnamoyl-L-tyrosine (Compound 1 shown).
Experimental groups: Mice were randomly divided into 5 groups, 10 mice in each group: a blank group, a model group, a 4-hydroxy-3-methoxycinnamoyl-L-tyrosine (Compound 1 shown, 2 mg/kg) group, a 4-trifluoromethyl-cinnamoyl-4-fluoro-L-phenylalanine (Compound 2 shown, 2 mg/kg) group and a levodopa (15 mg/kg) group. Pre-dosing by gavage was carried out for 12 consecutive days. The blank group and the model group were given equal doses of PBS, and modeling was performed on the 13th day. The model group and the drug group were intraperitoneally injected with MPTP (20 mg/kg), once every 2 h, for 4 consecutive injections. After modeling, behavioral tests were carried out. The behavioral performance of mice was tested with a YLS-4C mouse rota-rod treadmill at 4 h, 24 h, 48 h, and 72 h after MPTP modeling. The time from the start of rotation of the rota-rod to the time leaving the rota-rod of the test mice was taken as the latency. The test time was 180 s, and each mouse was tested 3 times to obtain an average value. […]

[4] = biological target: T1, iNOS (Mus musculus, UniProt P29477); assay: In vitro iNOS inhibitory effect (iNOS activity detection kit) in LPS-stimulated BV-2 cells; type: cell-based; conditions: compound 0.01-10 μM added 4 hours before LPS 500 ng/mL for 24 hours, FIG. 1, read-out: iNOS inhibition IC50
T1 sequence (P29477 1-1144): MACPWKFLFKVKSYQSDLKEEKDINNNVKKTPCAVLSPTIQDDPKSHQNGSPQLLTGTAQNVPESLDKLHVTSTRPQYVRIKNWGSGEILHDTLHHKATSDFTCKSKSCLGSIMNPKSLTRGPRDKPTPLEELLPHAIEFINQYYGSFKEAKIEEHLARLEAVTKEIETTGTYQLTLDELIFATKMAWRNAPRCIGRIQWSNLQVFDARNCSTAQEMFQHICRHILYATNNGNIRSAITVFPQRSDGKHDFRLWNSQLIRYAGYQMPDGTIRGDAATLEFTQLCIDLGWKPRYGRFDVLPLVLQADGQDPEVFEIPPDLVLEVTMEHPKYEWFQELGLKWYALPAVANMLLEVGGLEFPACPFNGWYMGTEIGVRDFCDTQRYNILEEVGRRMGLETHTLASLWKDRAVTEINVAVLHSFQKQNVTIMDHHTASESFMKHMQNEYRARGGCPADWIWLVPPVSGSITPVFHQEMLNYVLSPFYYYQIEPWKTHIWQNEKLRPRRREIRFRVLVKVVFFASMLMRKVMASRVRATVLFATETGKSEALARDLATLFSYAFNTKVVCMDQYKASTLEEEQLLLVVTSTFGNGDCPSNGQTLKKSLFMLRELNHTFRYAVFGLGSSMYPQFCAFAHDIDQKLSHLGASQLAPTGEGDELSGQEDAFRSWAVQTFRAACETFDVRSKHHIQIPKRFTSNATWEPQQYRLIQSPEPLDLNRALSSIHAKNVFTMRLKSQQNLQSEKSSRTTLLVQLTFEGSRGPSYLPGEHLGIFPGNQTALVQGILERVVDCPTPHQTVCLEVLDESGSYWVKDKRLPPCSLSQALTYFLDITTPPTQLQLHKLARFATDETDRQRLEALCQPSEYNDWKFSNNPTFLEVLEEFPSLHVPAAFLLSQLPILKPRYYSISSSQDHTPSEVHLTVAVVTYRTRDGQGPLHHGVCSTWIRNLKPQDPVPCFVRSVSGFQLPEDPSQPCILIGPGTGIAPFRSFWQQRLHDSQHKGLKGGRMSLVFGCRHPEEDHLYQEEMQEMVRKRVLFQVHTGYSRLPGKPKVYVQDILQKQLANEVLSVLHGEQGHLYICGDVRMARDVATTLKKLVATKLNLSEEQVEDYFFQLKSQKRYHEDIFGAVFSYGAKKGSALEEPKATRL
Method: Experimental materials: BV-2 cells (purchased from Shanghai Cell Bank, Chinese Academy of Sciences), DMEM cell culture fluid (Sigma), fetal bovine serum (Gibico), 96-well cell culture plate (Corning), DMSO (Sigma), LPS (Sigma), iNOS activity detection kit (Beyotime), test drug 4-trifluoromethyl-cinnamoyl-4-fluoro-L-phenylalanine prepared in Example 1, and microplate reader.
Then according to the group, the drug or blank culture fluid was added to the corresponding group for culture for 4 hours. Finally, except the blank group, each group was stimulated with LPS with a final concentration of 500 ng/mL for 24 hours. The iNOS activity assay was performed according to the requirements of the iNOS detection kit.

O=C(/C=C/c1ccc(C(F)(F)F)cc1)N[C@@H](Cc1ccc(F)cc1)C(=O)O [Compound 2, 4-trifluoromethyl-cinnamoyl-4-fluoro-L-phenylalanine]
size of cerebral infarction caused by ischemia reperfusion (TTC staining) [1]: effectively reduce the increase in the size of cerebral infarction
solubility ([2]; dichloromethane): soluble
solubility ([2]; methanol, acetone, ethyl acetate): easily soluble
solubility ([2]; petroleum ether, water): insoluble
dyskinesia of the Parkinsonian mice (rota-rod) [3]: effectively alleviate the dyskinesia
running time of the Parkinsonian mice (rota-rod latency) [3]: increase the running time
IC50 [4]: 110 nM
